Experimental data reported in patent US20240130988A1, “Use of stilbene compounds in the preparation of anti-tumor drugs” (Guangzhou AnHao Pharmaceutical Technology CO., LTD., priority 2022, published 2024).
Values belong to the molecule of their own block, whether it stands above or below them.

Columns and labels:
Assay type in all cases: in vivo
human lung cancer A549 = assay: Compound 8 combined with carboplatin, human lung cancer A549 xenograft in nude mice; conditions: ip: carboplatin 10 mg/kg, compound 8 200 mg/kg, combination 10 + 200
From the text: (§1) Experimental method: The model of human lung cancer A549 transplant tumor in nude mice was established by subcutaneously inoculating human lung cancer A549 cell lines into the armpits of nude mice. Cells were inoculated in an amount of 1×10^6, and after formation of the transplanted tumors by inoculation, the cells were passed 3 generations in nude mice before use. The vigorous growth of tumor tissue was cut into approximate 1.5 mm^3, and homogenized under sterile conditions, to prepare 1×10^7/mL of cell suspension. 0.1 mL of cell suspension was subcutaneously inoculated into the right armpit of nude mice. For transplanted tumors in nude mice, the diameter was measured with vernier caliper. After the tumor grew to 100 mm^3, the animals were randomly divided into groups, with 6 mice in each group. Using the method of measuring tumor diameter, the anti-tumor effect of test compound was dynamically Observed. Compound 8 was administered at 200 mg/kg by intraperitoneal injection, once every other day, for three weeks; carboplatin was administered at 10 mg/kg by intraperitoneal injection, once every other day, for three weeks. The measurement frequency of tumor diameter was once every three days. The dosage by volume was 0.1 mL/20 g. The mice in the negative control group were given an equal amount of physiological saline by intravenous injection. The effect of combined medicaments was evaluated based on the Q value calculated by Jin's formula: […]
Ea+b represents the tumor inhibitory rate of the combined medicaments, while Ea and Eb represent the tumor inhibitory rates of medicament A and medicament B, respectively. For example, the Q value of 0.85-1.15 means additive action (+), while the Q value of >1.15 means synergistic action (++).

[1] = test system: human liver cancer Bel7404; assay: Compound 3 combined with lenvatinib, human liver cancer Bel7404 xenograft in nude mice; conditions: po: lenvatinib 10 mg/kg, compound 3 400 mg/kg, combination 10 + 400
From the text: Experimental method: The model of human liver cancer Bel7404 transplant tumor in nude mice was established by subcutaneously inoculating human liver cancer Bel7404 cell lines into the armpits of nude mice. Cells were inoculated in an amount of 1×10^6, and after formation of the transplanted tumors by inoculation, the cells were passed 3 generations in nude mice before use. The vigorous growth of tumor tissue was cut into approximate 1.5 mm^3, and homogenized under sterile conditions, to prepare 1×10^7/mL of cell suspension. 0.1 mL of cell suspension was subcutaneously inoculated into the right armpit of nude mice. For transplanted tumors in nude mice, the diameter of the transplanted tumor was measured with vernier caliper. After the tumor grew to 100 mm^3, the animals were randomly divided into groups, with 6 animals in each group. Using the method of measuring tumor diameter, the anti-tumor effect of test compound was dynamically observed. Compound 3 was orally administered at 400 mg/kg, once a day, for three weeks; lenvartinib was also orally administered at 10 mg/kg, once a day, for two weeks. The measurement frequency of tumor diameter was once every three days. The animals in the negative control group were orally given an equal amount of physiological saline. The effect of combined medicaments was evaluated based on the Q value calculated by the Jin's formula: […]
Ea+b represents the tumor inhibitory rate of the combined medicaments, while Ea and Eb represent the tumor inhibitory rates of medicament A and medicament B, respectively. For example, the Q value of 0.85-1.15 means additive action (+), and the Q value of >1.15 means synergistic action (++).

[2] = test system: human gastric cancer SGC7901; assay: Compound 6 combined with paclitaxel, human gastric cancer SGC7901 xenograft in nude mice; conditions: paclitaxel 10 mg/kg iv, compound 6 200 mg/kg ip, combination 10 + 200
From the text: as §1, with “gastric” for “lung”, “SGC7901” for “A549”, “Using the method of measuring tumor diameter, the anti-tumor effect of test compound was dynamically Observed. Compound 8 was administered at 200 mg/kg by intraperitoneal injection, once every other day, for three weeks; carboplatin was administered at 10 mg/kg by intraperitoneal injection, once every other day, for three weeks.” left out
Ea+b represents the tumor inhibitory rate of the combined medicaments, while Ea and Eb represent the tumor inhibitory rates of medicament A and medicament B, respectively.

SMILES: N.N.O=C([O-])C1(C(=O)[O-])CCC1.[Pt+2] [Carboplatin]
RTV (d 21) (human lung cancer A549): 6.63 ± 1.42
Terminal weight (human lung cancer A549): 21.5 ± 0.9 g
Tumor inhibitory rate % (human lung cancer A549): 48.48%

Terminal weight [1]: 21.8 ± 0.7 g
SMILES: COc1cc2nccc(Oc3ccc(NC(=O)NC4CC4)c(Cl)c3)c2cc1C(N)=O [Lenvatinib, reference compound]
RTV (d 21) [1]: 3.89 ± 1.46
Tumor inhibitory rate % [1]: 65.36%

Terminal weight [2]: 21.7 ± 0.6 g
SMILES: CC(=O)O[C@H]1C(=O)[C@@]2(C)[C@H]([C@H](OC(=O)c3ccccc3)[C@]3(O)C[C@H](OC(=O)[C@H](O)[C@@H](NC(=O)c4ccccc4)c4ccccc4)C(C)=C1C3(C)C)[C@]1(OC(C)=O)CO[C@@H]1C[C@@H]2O [Paclitaxel, reference compound]
RTV (d 21) [2]: 7.37 ± 1.76
Tumor inhibitory rate % [2]: 45.49%
